Data: publication PMC6384730, “Systematic Identification of Thiosemicarbazides for Inhibition of Toxoplasma gondii Growth In Vitro” (Molecules, 2019)
Converted amounts (≈) assume the structure as drawn. “And” between values parts separate entries of the source, which are not always exact repeats. Equal entries are not always repeated. Where two headings read alike, the source gives them in different places.

What was measured:
[1] = MTT cell viability (cytotoxicity) assay on L929 cells; format: cell-based, mouse; conditions: mouse, L929 mouse fibroblast cells, 24 h, % of untreated cells; for viability at 24 h, 62.5 µg/mL: 62.50 µg/mL
Method: (§1) Cells were trypsinized twice a week, and seeded at density 1 × 10^6 per T25 cell culture flask, and incubated for 24-48 h at 37 °C and 10% CO2 to achieve a confluent monolayer. […] The final concentration of DMSO in compounds dilutions was not higher than 1.00%. […] Dilution of the all compounds 2-22 and drug were freshly prepared before the cells were exposed. […] The MTT assay was used according to international standards: ISO 10993-5:2009(E), Biological evaluation of medical devices, Part 5: Tests for in vitro cytotoxicity. […] Afterward, the culture medium in the plates was replaced by 100 μL of compounds and sulfadiazine suspension and the cells were exposed for 24 h. Then, 1 mg/mL of MTT solution in RPMI 1640 without phenol red was prepared and 50 μL of the solution was added to each well and incubated at 37 °C, 10% CO2 for 2 h. Mitochondrial dehydrogenases of viable cells reduced the yellowish water-soluble MTT to water-insoluble formazan crystals, which were solubilized with dimethyl sulfoxide (DMSO). The cell culture medium was aspirated cautiously, after which 150 μL DMSO was added to each well, the plates were gently mixed, then 25 μL 0.1 M glycine buffer (pH = 10.5) (Sigma) was added. Optical density was read on the ELISA reader (Multiskan EX, Labsystems, Vienna, VA, USA) at 570 nm. The results were expressed as the percentage of viability compared to untreated cells. All experiments were performed in triplicate. Moreover, cells were treated with 4.0-0.03% concentration of DMSO as a compounds solvent (data not shown).

L929 cells = assay: as above; format: cell-based, mouse; conditions: L929 cells, 24 h exposure
Method: as §1

T. gondii RH tachyzoites = assay: Influence on T. gondii proliferation ([3H]uracil incorporation) in infected Vero cells; format: cell-based, Toxoplasma gondii; conditions: for IC50: Toxoplasma gondii, Vero
Method: Vero cell line (African green monkey kidney) (ATCC® CCL-81™) were maintained in EMEM (EMEM/10%HIFBS/P/S) (Eagle’s Minimum Essential Medium—ATCC® 30-2003™) culture medium supplemented with 10% HIFBS (Heat-Inactivated (1 h in 56°C) Fetal Bovine Serum—ATCC), 100 U/mL penicillin, 100 μg/mL streptomycin. The cell line was trypsinized (using Trypsin-EDTA Solution, 1X ATCC® 30-2101™) twice a week, and seeded at density 1 × 10^6 per T25 cell culture flask (Falcon), and incubated for 24–48 h at 37 °C and 5 CO2 to achieve a confluent monolayer. The highly virulent RH strain of Toxoplasma gondii, haplogroup I (ATCC® PRA-310™) were maintained as tachyzoites according to the ATCC product sheet, in DMEM (Dulbecco’s Modified Eagle’s Medium—ATCC® 30-2002™) (DMEM/3%HIFBS/P/S—parasite culture medium) under condition 37 °C and 5 CO2 and passage twice per week.
The Vero cells were seeded on 96-well plates (1 × 10^5 cells/100 µL/well) in EMEM/10%HIFBS/P/S. After 24 h of incubation medium was removed and then T. gondii RH tachyzoites were added to the cell monolayers at density 1 × 10^5 cells/100 µL/well in DMEM/3%HIFBS/P/S. One hour later different compounds and sulfadiazine dilutions (100 µL/well) in parasite culture medium were added to the cell monolayers with T. gondii. After subsequent 24 h of incubation 1 µCi/well [5,6-^3H] uracil (Moravek Biochemicals Inc., Brea, CA, USA) was applied to each microculture for further 72 h. The amount of the isotope incorporated into the parasite nucleic acid pool, corresponding to the parasite growth, was measured by liquid scintillation counting using 1450 Microbeta Plus Liquid Scintillation Counter (Wallac Oy, Turku, Finland). The results were expressed as counts per minute (CPM) and transformed to the percentage of viability compared to untreated cells. All experiments were performed in triplicate.

[2] = IC50 greater than 125 µg/mL (highest concentration tested), calculated by extrapolation of the curves (GraphPad Prism), read-out: IC50 (50% inhibition of T. gondii proliferation in vitro), extrapolated
[3] = RH tachyzoites in Vero cells, [3H]uracil incorporation, highest concentration tested 125 µg/mL, read-out: IC50 (50% inhibition of T. gondii proliferation in vitro)

Structure (SMILES) | melting point [°C] | viability at 24 h, 3.91 µg/mL [1] [%] | viability at 24 h, 7.81 µg/mL [1] [%] | viability at 24 h, 15.63 µg/mL [1] [%] | viability at 24 h, 31.25 µg/mL [1] [%] | viability at 24 h, 62.5 µg/mL [1] [%] | viability at 24 h, 125 µg/mL [1] [%] | viability at 24 h, 250 µg/mL [1] [%] | viability at 24 h, 500 µg/mL [1] [%] | CC30 (concentration required for 30% cells proliferation inhibition) (L929 cells) | IC50 (T. gondii RH tachyzoites; [2]) [µg/mL] | IC50 (T. gondii RH tachyzoites; [3]) [µg/mL] | IC50 (50% inhibition of T. gondii proliferation in vitro) (T. gondii RH tachyzoites; RH tachyzoites in Vero cells, [3H]uracil incorporation, highest concentration tested 125 µg/mL) [µg/mL]
Cc1nc[nH]c1C(=O)NNC(=S)Nc1ccc(N(C)C)cc1 [Compound 19, 1-(4-Methylimidazol-5-oyl)-4-(4-dimethyloaminophenyl)thiosemicarbazide] | 215 to 217 | 93.1 | 91.8 | 85.7 | 80.8 | 78.6 | 68.5 | 60.8 | 53.3 | 112.20 µg/mL | ~165 (≈ 517 µM) | – | –
Cc1cccc(NC(=S)NNC(=O)c2[nH]cnc2C)c1 [Compound 17, 1-(4-Methylimidazol-5-oyl)-4-(3-methylphenyl)thiosemicarbazide] | 193 to 195 | 94.1 | 88.7 | 85.7 | 74.8 | 64.9 | 56.5 | 50 | 40.7 | 50.12 µg/mL | – | 37.1 (≈ 128 µM) | –
Cc1ccc(NC(=S)NNC(=O)c2[nH]cnc2C)cc1 [Compound 18] | – | 99.1 | 91.7 | 82 | 69 | 64.6 | 63.7 | 60.4 | 53 | 34.67 µg/mL | – | ~57.6 (≈ 199 µM) | –
COc1ccc(NC(=S)NNC(=O)c2[nH]cnc2C)cc1OC [Compound 13, 4-(3,4-Dimethoxyphenyl)-1-(4-methylimidazol-5-oyl)thiosemicarbazide] | 223 to 225 | 107 | 105 | 103 | 99.8 | 97.5 | 95.7 | 94.2 | 77 | >500.00 µg/mL and >500 µg/mL | ~175 (≈ 522 µM) | – | –
CC(=O)c1cccc(NC(=S)NNC(=O)c2[nH]cnc2C)c1 [Compound 12, 4-(3-Acetylphenyl)-1-(4-methylimidazol-5-oyl)thiosemicarbazide] | – | 106 | 104 | 103 | 101 | 99.3 | 96.7 | 76.8 | 56.2 | 206.54 µg/mL | – | 95.5 (≈ 301 µM) | –
Cc1nc[nH]c1C(=O)NNC(=S)Nc1cccc([N+](=O)[O-])c1 [Compound 3, 1-(4-Methylimidazol-5-oyl)-4-(3-nitrophenyl)thiosemicarbazide] | – | 95.4 | 94.6 | 94.6 | 89.4 | 79 | 72.4 | 55.8 | 15.3 | 141.25 µg/mL | – | 14.8 (≈ 46.1 µM) | –
Cc1ccc(NC(=S)NNC(=O)c2[nH]cnc2C)cc1Cl [Compound 14, 4-(3-Chloro-4-methylphenyl)-1-(4-methylimidazol-5-oyl)thiosemicarbazide] | 213 to 215 | 101 | 91.5 | 76.6 | 67.5 | 61.5 | 49.3 | 21.1 | 10.4 | 28.18 µg/mL | – | 18.6 (≈ 57.5 µM) | –
COc1ccc(NC(=S)NNC(=O)c2nc[nH]c2C)cc1 [Compound 7] | – | 95.1 | 90.3 | 89.5 | 87.7 | 85.8 | 84 | 70.7 | 68.6 | 389.05 µg/mL | – | 114 (≈ 373 µM) | –
Cc1nc[nH]c1C(=O)NNC(=S)NCc1ccccc1 [Compound 8, 4-Benzyl-1-(4-methylimidazol-5-oyl)thiosemicarbazide] | – | 101 | 99.4 | 96.5 | 92 | 88.8 | 64.9 | 53.3 | 46.6 | 123.03 µg/mL | ~150 (≈ 517 µM) | – | –
COc1ccccc1NC(=S)NNC(=O)c1[nH]cnc1C [Compound 5, 4-(2-Methoxyphenyl)-1-(4-methylimidazol-5-oyl)thiosemicarbazide] | – | 95.8 | 91.9 | 89 | 86.5 | 78.5 | 69.7 | 63.1 | 53.6 | 138.04 µg/mL | – | 33.1 (≈ 108 µM) | –
Cc1nc[nH]c1C(=O)NNC(=S)Nc1cc(F)ccc1F [Compound 15, 4-(2,5-Difluorophenyl)-1-(4-methylimidazol-5-oyl)thiosemicarbazide] | – | 105 | 102 | 101 | 96.2 | 84.3 | 74.8 | 65.2 | 51.2 | 158.49 µg/mL | – | 53.1 (≈ 170 µM) | 53.70
CCOc1ccc(NC(=S)NNC(=O)c2[nH]cnc2C)cc1 [Compound 21, 4-(4-Ethoxyphenyl)-1-(4-methylimidazol-5-oyl)thiosemicarbazide] | – | 115 | 114 | 112 | 106 | 101 | 84.3 | 82.3 | 72 | 500.00 µg/mL and 500 µg/mL | – | 95.3 (≈ 298 µM) | –
